Here are results for 15 compounds from patent publication US8889672B2, “Compounds, formulations, and methods of protein kinase C inhibition” (The Regents of The University of Michigan, priority 2011, dated 2014).

Data set [1] addresses aPKCζ (Homo sapiens (Human), UniProt Q05513). Kind of data set: ADP Quest assay, IC50 against aPKCζ. The following applies: 500 ng/ml aPKCζ, 10 μM CREBtide, 10 μM ATP.
Data set [2] concerns HEK293pNF-kBluc cells. Kind of data set: TNF-induced NF-kB activation assay (luciferase reporter). The format is cell-based, human. The following applies: 3 h pre-treatment, 5 ng/mL TNF for 5 h. The protocol: HEK293pNF-kBluc cells (Panomics, Fremont, Calif., USA) were cultured according to the manufacturer's protocol. Cells were seeded onto 96-well plates in phenol red-free DMEM containing high glucose (Sigma) for 24 hours prior to assay. Cells were exposed to a candidate compound for three hours. Following treatment, cells were stimulated with 5 ng/ml TNF (R&D Systems) for five hours. Cells were then lysed with Bright-Glo™ luciferase reagent (Promega, Madison, Wis., USA) and luminescent values were obtained using a GloMax® instrument using standard protocol for Bright-Glo™ luciferase reagent. Values were background corrected and normalized to TNF treatment alone and represented as % NF-kB activity.
Human embryonic kidney cells containing a luciferase reporter gene for NF-kB activation (HEK293pNF-kBluc) were treated with candidate compounds described herein for three hours. The cells were then stimulated with TNF for five hours and the inhibition of NF-kB was evaluated. After pre-treatment with 100 nM of aPKC inhibitor, NF-kB activity was reduced by as much as 80%. […] Other compounds tested inhibited TNF-induced NF-kB activity, but to a lesser degree.
(A reporter such as luciferase makes a cellular process visible.)

In data set [3] the test system is BREC monolayer. Nature of the data set: TNF/VEGF permeability assay. The format is cell-based, bovine. The conditions noted are these: 30 min pretreatment, TNFα 1 hour then VEGF 30 min. The protocol: BREC were plated onto 0.4 μm Transwell filters (Corning Costar, Acton, Mass., USA) and grown to confluence. Following 30 minutes of pretreatment with candidate compound, cells were subjected to 5 ng/ml TNFα (R&D Systems, Minneapolis, Minn., USA) for one hour, then 50 ng/ml VEGF (R&D Systems) for 30 minutes. Following treatments, 70 kDa Rhodamine β isothiocyanate-dextran (RITC-Dextran) was added to the apical chamber, and samples were collected from the basolateral chamber at 30 minute intervals for four hours. The rate of flux of the substrate, Po, was calculated over the four-hour time course from the following formula: Po=[FL/delta(t))VA]/(FAA)
where Po is in centimeters per second; FL is basolateral fluorescence; FA is apical fluorescence; delta(t) is change in time; A is the surface area of the filter (in square centimeters); and VA is the volume of the basolateral chamber (in cubic centimeters).

aPKCζ, sequence (Q05513 whole entry): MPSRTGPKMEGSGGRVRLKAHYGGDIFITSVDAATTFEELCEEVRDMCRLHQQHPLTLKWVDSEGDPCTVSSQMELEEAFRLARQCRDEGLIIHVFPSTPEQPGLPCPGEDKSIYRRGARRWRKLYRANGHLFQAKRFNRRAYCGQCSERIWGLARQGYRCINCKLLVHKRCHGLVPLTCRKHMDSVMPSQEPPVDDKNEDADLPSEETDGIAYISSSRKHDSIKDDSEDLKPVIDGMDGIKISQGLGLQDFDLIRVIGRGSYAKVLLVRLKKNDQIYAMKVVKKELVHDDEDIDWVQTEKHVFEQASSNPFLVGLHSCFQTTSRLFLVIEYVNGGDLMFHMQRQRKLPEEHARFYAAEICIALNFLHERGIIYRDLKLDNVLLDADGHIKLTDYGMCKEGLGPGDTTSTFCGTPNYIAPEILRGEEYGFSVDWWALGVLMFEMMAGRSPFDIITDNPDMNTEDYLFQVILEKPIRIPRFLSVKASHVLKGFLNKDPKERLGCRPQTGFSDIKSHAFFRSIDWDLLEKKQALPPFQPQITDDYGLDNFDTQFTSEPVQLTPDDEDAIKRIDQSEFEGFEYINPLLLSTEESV

Regarding `COc1ccc(-c2csc(N)c2C(=O)N2CCOCC2)cc1OC` [Compound 194-074-005], in data set [1], the midpoint of inhibition, the IC50, lay at 4 µM.

Turning to `CCNC(=O)c1c(-c2ccc(OC)c(OC)c2)csc1N` [Compound 194-074-008], half-maximal inhibition in data set [1] (IC50) required 4 µM.

As to `Nc1scc(-c2ccc(Cl)c(Cl)c2)c1C(=O)N1CCOCC1` [Compound 194-094-003], the midpoint of inhibition in data set [1], the IC50, lay at 3 µM.

Consider `CC(C)NC(=O)c1c(-c2ccc(Cl)c(Cl)c2)csc1N` [Compound 194-094-008], for which it took 5 µM to reach half-maximal inhibition in data set [1] (IC50).

With `CCNC(=O)c1c(-c2ccc(Cl)c(Cl)c2)csc1N` [Compound 194-094-009], the IC50 (in general, the concentration needed to halve the response being measured) in data set [1] is 5 µM.

On to `COc1ccc(-c2csc(N)c2C#N)cc1OC` [Compound 227-076-001], for which, in data set [1], inhibition was half-maximal at 7 µM (IC50). The IC50 values of the last two compounds are within 1.5-fold of each other.

Regarding `COc1ccc(-c2csc(N)c2C(=O)OCc2ccccc2)cc1OC` [Compound 252-036-001], in data set [2], the EC50 was 0.001 µM. The compound further came in with an IC50 in data set [1] of 6 µM.

For the compound `CCOC(=O)c1c(-c2ccc3c(c2)OCO3)csc1N` [Compound 268-020-002], the results for the EC50 in data set [2] and in data set [3] (read-out: EC50 for inhibition of TNF/VEGF-induced endothelial permeability) were 0.003 µM and 0.02 µM, respectively. Besides, the IC50 in data set [1] was 2 µM. Also, the “TNF/VEGF-induction of BREC permeability” value in data set [3] is given as “significantly reduce”.

In turn, `COc1ccc(-c2csc(N)c2C(=O)OCc2ccccc2F)cc1OC` [Compound 317-052-001] gave an IC50 in data set [1] of 7 µM.

Turning to `COc1cccc(COC(=O)c2c(-c3ccc(OC)c(OC)c3)csc2N)c1` [Compound 317-052-004], the EC50 in data set [2] was 0.002 µM. Also, in data set [1], half-maximal inhibition (IC50) was put at 5 µM.

For the compound `CCOC(=O)c1c(-c2ccc(OC)cc2F)csc1N` [Compound 317-054-001], in data set [2], the EC50 amounted to 0.01 µM. In data set [1], this compound came in with a concentration for half-maximal inhibition (IC50) of 4 µM.

For `CCOC(=O)c1c(-c2ccc(NC(C)=O)cc2)csc1N` [Compound 317-056-002], in data set [1], the IC50 amounted to 6 µM.

With `CCOC(=O)c1c(-c2ccc(N(C)C)cc2)csc1N` [Compound 317-080-001], in data set [2], the EC50 was found to be 0.001 µM.

As for `CCOC(=O)c1c(-c2ccc(N)cc2)csc1N` [Compound 317-094-001], in data set [2], the EC50 is 0.001 µM. Moreover, in data set [1], the IC50 was determined as 2 µM.

In turn, `COc1cccc(COC(=O)c2c(-c3ccc(C(N)=O)cc3)csc2N)c1` [Compound 317-120-001] came in with an IC50 in data set [1] of 6 µM. In other words, the single-digit micromolar range.
